Laboratory results taken from publication PMC7211202 (Investigational New Drugs, 2019).

Key:
[1] = system: MDM2-amplified tumors; details: cited from earlier work
[2] = Dose-limiting toxicities and maximum tolerated dose; type: in vivo
Protocol: This open-label phase 1 study was conducted at 16 centers (ClinicalTrials.gov, NCT01723020). TP53 mutation status was confirmed by central laboratory assessment. The study was planned with two parts: a 3-part dose escalation (Part 1) and a dose expansion (Part 2). […] Intermediate doses were allowed when deemed appropriate. The dose expansion was planned for patients with MDM2-amplified tumors (group 1; liposarcomas, GBM, and other solid tumors), potentially MDM2-overexpressing tumors (group 2; ER+ metastatic breast cancer), or multiple myeloma (group 3).
Each patient was monitored for 21 days for the occurrence of dose-limiting toxicities (DLTs), defined as febrile neutropenia, neutropenic infection, grade 4 neutropenia lasting >7 days, grade ≥ 3 thrombocytopenia lasting >7 days (solid tumors only), grade 3 thrombocytopenia with grade ≥ 2 bleeding (solid tumors only), grade 3 or 4 thrombocytopenia with grade > 1 bleeding (multiple myeloma only), grade 4 thrombocytopenia (solid tumors only), or grade 4 thrombocytopenia lasting >14 days (multiple myeloma only), or as grade ≥ 3 nausea, vomiting, or diarrhea after support; grade 3 fatigue lasting >7 days; any other grade ≥ 3 adverse event (AE); grade ≥ 3 kidney injury (multiple myeloma only), or treatment-related AEs not returning to grade ≤ 1 (solid tumors only) per Common Terminology Criteria for Adverse Events (CTCAE), version 4.0. […] Treatment continued until disease progression, intolerable toxicity, or withdrawal of consent.

Structure (SMILES): CC(C)[C@@H](CS(=O)(=O)C(C)C)N1C(=O)[C@@](C)(CC(=O)O)C[C@H](c2cccc(Cl)c2)[C@H]1c1ccc(Cl)cc1 [AMG 232]
- effect of treatment in tumor xenograft models [1]: tumor growth inhibition
- effect on MDM2-amplified tumors in xenograft models ([1]; through induction of growth arrest and apoptosis): regression
- DLT observed ([2]; 120-mg cohort, patient with esophageal cancer): grade 3 thrombocytopenia on day 15 that worsened to grade 4 on day 17
- Additional patients with cytopenias (grade 4 neutropenia; grade 4 thrombocytopenia) outside of the 21-day DLT evaluation window ([2]; 300-mg cohort): Two
- DLT observed ([2]; 360-mg cohort, patient with rectal cancer): grade 4 thrombocytopenia on day 28
- DLT observed ([2]; 480-mg cohort, patient with head and neck cancer): grade 3 neutropenia on day 22 that delayed treatment in the next cycle
- highest safe and tolerable dose ([2]; DLTs and delayed cytopenias considered, QD 7 days Q3W): 240 mg
- MTD (protocol-specified definition using DLTs incidence) ([2]; QD for 7 days Q3W, doses up to 480 mg): not reached
- Patients with DLTs ([2]; dose escalation): Three
